Measurements: BigSolDB 2.1

Work on `COc1ccc(C(=O)O)c(OC)c1` yielded a solubility (mole fraction) (in ethanol, 288.15 K) of 0.0116, a solubility (mole fraction) (in ethanol, 293.15 K) of 0.0149 and a solubility (mole fraction) (in ethanol, 298.15 K) of 0.0191. The solubility (mole fraction) (in ethanol, 303.15 K) was 0.0244, the solubility (mole fraction) (in ethanol, 308.15 K) was 0.0312 and the solubility (mole fraction) (in ethanol, 313.15 K) was 0.0398. It also gave a solubility (mole fraction) (in ethanol, 318.15 K) of 0.0507, a solubility (mole fraction) (in ethanol, 323.15 K) of 0.0644 and a solubility (mole fraction) (in ethyl acetate, 288.15 K) of 0.0165. The solubility (mole fraction) (in ethyl acetate, 293.15 K) was 0.0205, the solubility (mole fraction) (in ethyl acetate, 298.15 K) was 0.0253 and the solubility (mole fraction) (in ethyl acetate, 303.15 K) was 0.0312. It also gave a solubility (mole fraction) (in ethyl acetate, 308.15 K) of 0.0382, a solubility (mole fraction) (in ethyl acetate, 313.15 K) of 0.0467 and a solubility (mole fraction) (in ethyl acetate, 318.15 K) of 0.0567. It also gave a solubility (mole fraction) (in ethyl acetate, 323.15 K) of 0.0687, a solubility (mole fraction) (in isobutanol, 288.15 K) of 0.0059 and a solubility (mole fraction) (in isobutanol, 293.15 K) of 0.0079. It also gave a solubility (mole fraction) (in isobutanol, 298.15 K) of 0.0105, a solubility (mole fraction) (in isobutanol, 303.15 K) of 0.0139 and a solubility (mole fraction) (in isobutanol, 308.15 K) of 0.0183. For the same compound, the solubility (mole fraction) (in isobutanol, 313.15 K) was 0.0239, the solubility (mole fraction) (in isobutanol, 318.15 K) was 0.0311 and the solubility (mole fraction) (in isobutanol, 323.15 K) was 0.0401. The solubility (mole fraction) (in isopropanol, 288.15 K) was 0.0059, the solubility (mole fraction) (in isopropanol, 293.15 K) was 0.0081 and the solubility (mole fraction) (in isopropanol, 298.15 K) was 0.0109. For the same compound, the solubility (mole fraction) (in isopropanol, 303.15 K) was 0.0147, the solubility (mole fraction) (in isopropanol, 308.15 K) was 0.0195 and the solubility (mole fraction) (in isopropanol, 313.15 K) was 0.0259. For the same compound, the solubility (mole fraction) (in isopropanol, 318.15 K) was 0.034, the solubility (mole fraction) (in isopropanol, 323.15 K) was 0.0445 and the solubility (mole fraction) (in n-butanol, 288.15 K) was 0.0086. It also gave a solubility (mole fraction) (in n-butanol, 293.15 K) of 0.0112, a solubility (mole fraction) (in n-butanol, 298.15 K) of 0.0146 and a solubility (mole fraction) (in n-butanol, 303.15 K) of 0.0188. It also gave a solubility (mole fraction) (in n-butanol, 308.15 K) of 0.0242, a solubility (mole fraction) (in n-butanol, 313.15 K) of 0.0309 and a solubility (mole fraction) (in n-butanol, 318.15 K) of 0.0393. It also gave a solubility (mole fraction) (in n-butanol, 323.15 K) of 0.0498, a solubility (mole fraction) (in n-propanol, 288.15 K) of 0.0087 and a solubility (mole fraction) (in n-propanol, 293.15 K) of 0.0114. For the same compound, the solubility (mole fraction) (in n-propanol, 298.15 K) was 0.015, the solubility (mole fraction) (in n-propanol, 303.15 K) was 0.0195 and the solubility (mole fraction) (in n-propanol, 308.15 K) was 0.0252. For the same compound, the solubility (mole fraction) (in n-propanol, 313.15 K) was 0.0325, the solubility (mole fraction) (in n-propanol, 318.15 K) was 0.0417 and the solubility (mole fraction) (in n-propanol, 323.15 K) was 0.0532.
